Data on 1 compound can be found in patent US20090298895A1, “USE OF THIOPROLINE IN BODY WEIGHT REDUCTION TREATMENTS” (Universidad De Cadiz, priority 2006, published 2009).

What all share (type): in vivo
Assay [1] deals with CD-1 Swiss/UCàdiz mice. Kind of assay: Survival of thioproline-supplemented mice. As to conditions: for Mean life span / Maximum life expectancy: supplemented mice n=70; for Mean life span: control 62±4 weeks; for Maximum life expectancy: control 118±4 weeks. From the text: (§1) The mice strain used in this study, CD-1 Swiss/UCàdiz, is a type of mice with accelerated senescence similar to the AKR, SAM, NZB/Lac, and SJL/J mice having a mean life span of 36-57 weeks and a maximum life expectancy of 52-83 weeks. These mice have been used in the Universidad de Càdiz in several survival studies (Navarro A, Gomez C, Sanchez-Pino M J, Gonzalez H. Bandez M J, Boveris A D and Boveris A. Vitamin E at high doses improves survival, neurological performance, and brain mitochondrial function in aging male mice. Am J Physiol Regul Integr Comp Physiol 289: R1392-R1399, 2005; Navarro A, Gomez C, Lopez-Cepero J M and Boveris A. Beneficial effects of moderate exercise on mice aging: survival, behavior, oxidative stress, and mitochondrial electron transfer. Am J Physiol Regul Integr Comp Physiol 286: R505-R511, 2004; Navarro A, Sanchez Del Pino M J, Gomez C, Peralta J L and Boveris A. Behavioral dysfunction, brain oxidative stress, and impaired mitochondrial electron transfer in aging mice. Am J Physiol Regul Integr Comp Physiol 282: R985-R992, 2002).
(§2) The control group received standard laboratory animal food (A04 diet, Panlab LS, Barcelona, Spain), whereas the l-thioproline-supplemented mice received the same food as the mice in the control group, but supplemented with 2.0 g of l-thioproline (Sigma Aldrich)/kg of food from 28 weeks of age and until the end of their lives.
The date on which each mouse died (Example 1) was controlled to be able to obtain the survival curves.

The test system of assay [2] is CD-1 Swiss/UCàdiz mice. In words: Body weight of mice on l-thioproline-supplemented diet. Details: Variation: percentage reduction in weight between supplemented mice and control mice: concentration or dose not given beside the values. The note with it: for Average weight: average ± SEM.
Excerpt: To study the effect of thioproline, particularly of l-thioproline, on feeding behavior, CD-1 Swiss/UCàdiz mice bred in the Animal Experimentation department of the Universidad de Càdiz were used.
as §1
The mice were stabled in groups of 5 animals at 22±2° C. with 12 h/12 h of light/dark cycles and with free access, ad libitum, to food and water.
as §2
The food was weighed daily. The mice were weighed weekly, and it was periodically controlled that the animals were pathogen-free.

Assay [3] relates to CD-1 Swiss/UCàdiz mice. In words: Neurological tests (tightrope test and T maze test). The note with it: once a week, FIG. 2A, 2B. The source says: The animals of Example 1 were subjected to two tests once a week to evaluate neurological capacities, specifically to the tightrope test and the T maze test. The assayed animals were the animals mentioned in Example 1, i.e. the group of control mice and the group of mice with an l-thioproline-supplemented diet according to the treatment described in the Example 1. This test allows evaluating neuromuscular coordination. The mice were suspended in the center of a 60 cm wide tightrope and the time it took them to reach one of the columns located at the end of the rope was measured. The test was considered positive when the animal reached one of the ends in less than 60 seconds. This test measures spontaneous cognitive neurological activity. The mice were placed in a T maze with 50 cm arms, and the test was considered successful when the mice reached the intersection in less than 60 seconds.

The subject of assay [4] is CD-1 Swiss/UCàdiz mice. Kind of assay: Average daily food intake ad libitum. As to conditions: diet with 2.0 g l-thioproline/kg of food. The protocol:
To study the effect of thioproline, particularly of l-thioproline, on feeding behavior, CD-1 Swiss/UCàdiz mice bred in the Animal Experimentation department of the Universidad de Càdiz were used. The mice were stabled in groups of 5 animals at 22±2° C. with 12 h/12 h of light/dark cycles and with free access, ad libitum, to food and water. The control group received standard laboratory animal food (A04 diet, Panlab LS, Barcelona, Spain), whereas the l-thioproline-supplemented mice received the same food as the mice in the control group, but supplemented with 2.0 g of l-thioproline (Sigma Aldrich)/kg of food from 28 weeks of age and until the end of their lives. The food was weighed daily. The mice were weighed weekly, and it was periodically controlled that the animals were pathogen-free.

`O=C(O)C1CSCN1` (stereo not drawn) [l-thioproline, thiazolidine-4-carboxylic acid]: the “Prolongation of mean life span versus control” value in the assay with CD-1 Swiss/UCàdiz mice [1] (from 62 weeks to 80 weeks) was “approximately 29%”. Moreover, in the assay on CD-1 Swiss/UCàdiz mice [1] (from 118 weeks to 145 weeks), the “Prolongation of maximum life versus control” value is listed as “approximately 23%”. The Mean life span in the assay on CD-1 Swiss/UCàdiz mice [1] was 80 weeks; with CD-1 Swiss/UCàdiz mice [1] (listed as thioproline) it was 80±3 weeks. Besides, the Maximum life expectancy is listed as 145 weeks with CD-1 Swiss/UCàdiz mice [1] and 145±3 weeks in the assay on CD-1 Swiss/UCàdiz mice [1] (listed as thioproline). Further, in the assay on CD-1 Swiss/UCàdiz mice [2] (after 12 weeks of l-thioproline-supplemented diet, FIG. 1), the “Weight increase versus control group” value is reported as “smaller weight increase than the increase observed in the control group”. The “Variation: percentage reduction in weight between supplemented mice and control mice” value in the assay with CD-1 Swiss/UCàdiz mice [2] (age 28 weeks) was determined as 2.06%; in the assay on CD-1 Swiss/UCàdiz mice [2] (age 52 weeks), 4.45%; in the assay with CD-1 Swiss/UCàdiz mice [2] (age 78 weeks), 11.65%; in the assay on CD-1 Swiss/UCàdiz mice [2] (age 100 weeks), 10.18%. In addition, the Average weight with CD-1 Swiss/UCàdiz mice [2] (age 28 weeks (start of supplementation), diet with 2.0 g l-thioproline/kg of food) is given as 42.7 ± 0.4 g; with CD-1 Swiss/UCàdiz mice [2] (age 52 weeks, diet with 2.0 g l-thioproline/kg of food from 28 weeks of age) it was 47.2 ± 0.4 g; in the assay on CD-1 Swiss/UCàdiz mice [2] (age 78 weeks, diet with 2.0 g l-thioproline/kg of food from 28 weeks of age), 48.5 ± 0.5 g; in the assay on CD-1 Swiss/UCàdiz mice [2] (age 100 weeks, diet with 2.0 g l-thioproline/kg of food from 28 weeks of age) it was 49.4 ± 0.5 g. Moreover, the “Improvement in the neurological tests compared to control group” value with CD-1 Swiss/UCàdiz mice [3] is 17-39%. Also, the “Spontaneous reduction of the intake versus control mice” value in the assay on CD-1 Swiss/UCàdiz mice [4] is “approximately 20%”. The “Average daily intake ad libitum” value in the assay on CD-1 Swiss/UCàdiz mice [4] (control 6.3±0.03 g/day) came to 5.1 ± 0.03 g/day.
